According to patent US20190054047A1, “TREATMENT OF MALIGNANT ADRENOCORTICAL TUMOR WITH NICLOSAMIDE AND OTHER COMPOUNDS” (The U.S.A., as represented by the Secretary, Department of …, priority 2016, published 2019):

What was measured:
NCI-H295R cells = assay: Proliferation with niclosamide, mitotane or the combination (CyQuant, Chou-Talalay); assay type: cell-based; conditions: niclosamide 0.05-0.2 μM or mitotane 0.5-2 μM alone
Method: This example describes a method used to evaluate proliferation of H2965R adrenocortical carcinoma cells in the presence of (1) niclosamide alone (at 0.05 μM, 0.075 μM, 0.1 μM, 0.15 μM, or 0.2 μM), (2) mitotane alone (at 0.5 μM, 0.75 μM, 1 μM, 1.5 μM, or 2 μM), or (3) a combination of both niclosamide and mitotane.
NCI-H295R cells were cultured in Dulbecco modified Eagle medium (DMEM) supplemented with 2.5% NuSerum (BD Biosciences, San Jose, Calif.) and 0.1% ITS premix (BD Biosciences, San Jose, Calif.). Cells were maintained in 5% CO2 atmosphere at 37° C. 3×10^3 cells were plated in 96-well plates. […] Cell count was determined using the CyQuant kit (Life technologies, Grand Island, N.Y.) according to the manufacturer's instructions, and absorbance (cell number) was measured using a SpectraMax M5 microplate reader (Molecular Devices, Sunnyvale, Calif., ex485/em538). Assays were performed in quadruplicate and the experiments were repeated three times.
Statistical analysis was performed using GraphPad Prism 6 software (GraphPad Software, La Jolla, Calif.). Data was analyzed using a two-tailed Mann-Whitney test. Statistical significance was defined as a p-value of less than 0.05. Data are presented as mean±standard deviation (SD). […] Defined as a CI index of <1=synergistic, 1=additive, and >1 antagonistic.

[1] = cited from earlier work
β-catenin = assay: Western blot analysis of β-catenin; assay type: cell-based; conditions: all three cell lines
Method: (§1) The following antibodies were used: anti-beta catenin (1:1,000) from R&D Systems (Minneapolis, Minn.); anti-GAPDH (1:3,000) from Santa Cruz Biotechnology (Dallas, Tex.); anti-N-cadherin (1:4,000) from EMD Millipore (Billerica, Mass.); and anti-vimentin (1:5,000) from Cell Signaling Technology (Boston, Mass.). Niclosamide (2′,5-dichloro-4′-nitrosalicylanilide) was purchased from Sigma-Aldrich (St. Louis, Mo.) and dissolved in DMSO for in vitro studies.
(§2) Cell lysates were analyzed by SDS-PAGE and transferred to a PVDF membrane. The membranes were incubated with the appropriate primary antibodies overnight at 4° C., followed by horseradish peroxidase conjugated IgG (anti-rabbit 1:3,000, Cell Signaling Technology; anti-mouse 1:3,000, Santa Cruz Biotechnology; anti-goat 1:2,000, R&D Systems, Inc.). Proteins were detected by enhanced chemiluminescence (ECL; Thermoscientific, Rockford, Ill.).

[2] = system: all three cell lines (ACC); assay: Seahorse XF96 mitochondrial metabolism assay (OCR, ECAR); assay type: cell-based
Method: The Seahorse XF96 assay was performed according to the manufacturer's instructions (Seahorse Bioscience, Billerica, Mass.). Briefly, cells were plated in XF96 plates and media was replaced with unbuffered DMEM supplemented with 2 mmol of glutamine and 2.5 g/L of D-Glucose. After 1 hour in a 37° C. CO2-free incubator, the oxygen consumption rate (OCR) and extracellular acidification rate (ECAR) were measured before and after injection of the drug, the vehicle, or carbonyl cyanide 4-(trifluoromethoxy) phenylhydrazone (FCCP) using the Seahorse XF96 extracellular flux analyzer.

SW-13 [3] = assay: Caspase 3/7 activity assay (Caspase-Glo 3/7); assay type: cell-based; conditions: SW-13, 96 hours
Method: (§3) Cells were plated in 96-well plates and treated with niclosamide or the vehicle. Caspase 3/7 activity was measured using the Caspase-Glo 3/7 assay (Promega, Madison, Wis.), according to manufacturer's instructions.

BD140A cells [4] = assay: Caspase 3/7 activity assay (Caspase-Glo 3/7); assay type: cell-based
Method: as §3

NCI-H295R [5] = assay: Caspase 3/7 activity assay (Caspase-Glo 3/7); assay type: cell-based; conditions: 48 hours
Method: as §3

NCI-H295R MCAs = assay: Three-dimensional multicellular aggregates (MCA); assay type: cell-based; conditions: after four weeks of treatment
Method: (§4) NCI-H295R and SW-13 cells, which form multicellular aggregates (MCA) or spheroids, were plated in Ultra Low Cluster 24-well plates (Costar, Corning, N.Y.) at 1×10^5 cells/0.5 mL or 6×10^4 cells/0.5 mL depending on the cell line. Spheroids were allowed to develop for one or two weeks at 37° C. in 5% CO2, and media was exchanged twice a week. Spheroids were treated with niclosamide or the vehicle at varying concentrations, and imaged weekly.

SW-13 MCAs = assay: Three-dimensional multicellular aggregates (MCA); assay type: cell-based; conditions: SW-13, after three weeks of treatment
Method: as §4

SW-13 [6] = assay: qHTS cell viability (Cell Titer-Glo ATP quantitation); assay type: cell-based; conditions: Homo sapiens, SW13; SW-13, qHTS
Method: (§5) NCI-H295R and SW-13 cells were cultured in Dulbecco's modified Eagle medium (DMEM) supplemented with 2.5% NuSerum (BD Biosciences, San Jose, Calif.) and 0.1% ITS premix (BD Biosciences, San Jose, Calif.). BD140A cells, provided by Drs. Kimberly Bussey and Michael Demeure (Phoenix, Ariz.), were cultured in RPMI supplemented with 1% […] (Gibco, Grand Island, N.Y.), 1% penicillin-streptomycin (Gibco, Grand Island, N.Y.), and 10% fetal bovine serum (FBS; Invitrogen, Carlsbad, Calif.). The cell lines were authenticated using short tandem repeat profiling. Cells were maintained in a 5% CO2 atmosphere at 37° C.
(§6) The National Institutes of Health Chemical Genomic Center pharmaceutical library consists of 4,292 small molecules and compounds. Compounds were prepared as described previously (Mehta et al., Clin Cancer Res. 21:4123-32, 2015; hereby incorporated by reference in its entirety). The cell viability of treated cells was measured using the luciferase-coupled ATP quantitation assay, Cell Titer-Glo (Promega, Madison, Wis.). Doxorubicin hydrochloride and tetraoctylammonium bromide were used as positive controls. The final concentration of compounds in the assay ranged from 0.6 nM to 46 μM. The titration-response data was plotted and modeled by a four-parameter logistic fit-to-yield half-maximal inhibitory concentration (IC50) and efficacy (maximal response), as compared to tetraoctylammonium bromide values.

NCI-H295R [7] = assay: as above; assay type: cell-based; conditions: Homo sapiens
Method: as §5, §6

BD140A = assay: as above; assay type: cell-based
Method: as §5, §6

NCI-H295R and SW-13 = assay: Transwell (Boyden chamber) migration assay; assay type: cell-based; conditions: transwell migration assays
Method: (§7) NCI-H295R and SW-13 cells were plated in six-well plates and treated with varying concentrations of niclosamide or the vehicle for 24 hours. Cells were trypsinized and plated in transwell chambers (BD Biosciences, San Jose, Calif.) at a density of 1×10^5 cells per 0.5 mL. The lower chamber was filled with DMEM supplemented with 10% FBS as a chemoattractant. Cells were allowed to migrate for 24 hours or 48 hours depending on the cell line, and were fixed and stained with Diff-Quik (Dade Behring, Newark, N.J.). Cells were imaged and counted in three random fields per well, and the experiments performed in triplicate. […] The cells were scratched using a sterile pipette tip and photographed at various time points.

all three ACC cell lines = assay: Cell cycle analysis (propidium iodide flow cytometry); assay type: cell-based; conditions: 48 hours, more cells in G1, fewer in S phase
Method: Cells plated in six-well plates were treated with niclosamide or the vehicle. At 48 hours, cells were fixed for 30 minutes in 70% ethanol at 4° C., and stained with 50 μg/mL of propidium iodide containing […] of ribonuclease A. Flow cytometry was performed on a Canto I flow cytometer (Becton-Dickinson, Franklin Lakes, N.J.) using CellQuest software (BD Biosciences, San Jose, Calif.). Data was generated for at least 20,000 events per sample and analyzed using Modfit software (Verity Software House, Inc., Topsham, Me.).

NCI-H295R xenografts = assay: ACC xenograft tumor growth in vivo; parameters: species or system Nu+/Nu+ mice; conditions: for inhibition in tumor growth: four weeks, vs vehicle control
Method: Mice were maintained according to National Institutes of Health (NIH) Animal Research Advisory Committee (ARAC) guidelines. 5×10^6 NCI-H295R cells were injected into the flank of Nu^+/Nu^+mice. Tumors were allowed to grow and mice were randomized into three treatment groups (8 mice per treatment group). M ice were treated with 100 mg/kg of niclosamide, 200 mg/kg of niclosamide, or the vehicle (PEG500) everyday by oral gavage. Tumor sizes were measured in two dimensions every week with calipers and recorded.

[8] = system: three ACC cell lines (BD140A, SW-13, NCI-H295R); assay: Cellular proliferation assay (CyQuant), monolayer culture; assay type: cell-based
Method: 3×10^3 and 6×10^3 cells were plated in 96-well plates depending on the cell line. 100 μL of fresh culture medium containing the drug or vehicle was added. Cell count was determined using the CyQuant kit (Life Technologies, Grand Island, N.Y.), according to the manufacturer's instructions, and cell number was measured using a SpectraMax M5 microplate reader (ex485/em538; Molecular Devices, Sunnyvale, Calif.). Assays were performed in quadruplicate and the experiments were repeated three times.

AKT pathway = AKT pathway inhibition (FIGS. 6A and 6B); assay type: cell-based; conditions: BD140A and H295R cells
vimentin = assay: Western blot analysis of EMT mediators; assay type: cell-based; conditions: 48 hours of treatment
Method: as §1, §2

N-cadherin = assay: Western blot analysis of EMT mediators; assay type: cell-based; conditions: 48 hours of treatment
Method: as §1, §2

[9] = in vivo; cited from earlier work
[10] = humans; read-out: known Cmax in humans; cited from earlier work
ACC cells = assay: TMRE staining, mitochondrial membrane potential; assay type: cell-based; conditions: after 3 hours and 6 hours of treatment
Method: Cells in 96-well plates were treated with the drug or vehicle. Cells were then stained with 200 nM of tetramethylrhodamine, ethyl ester (TMRE) for 20 minutes at 37° C. and were washed with PBS; fluorescence was measured using a SpectraMax M5e 96-well fluorescence microplate reader. FCCP was used as a positive control.

[11] = system: adrenocortical carcinoma cell lines NCIH295R, BD140A and SW-13; assay: qHTS of 4,292 compounds, activity in all three ACC cell lines; assay type: cell-based; conditions: lower IC50 and higher efficacy vs cisplatin, doxorubicin, etoposide, mitotane, streptozocin (FIG. 1)
Method: as §5
as §6, with “The titration-response data was plotted and modeled by a four-parameter logistic fit-to-yield half-maximal inhibitory concentration (IC50) and efficacy (maximal response), as compared to tetraoctylammonium bromide values.” left out

BD140A cells [12] = assay: Wound-healing migration assay; assay type: cell-based; conditions: wound-heal assay, after 6 hours and 12 hours, vs vehicle control
Method: as §7

For Clc1ccc(C(c2ccccc2Cl)C(Cl)Cl)cc1 (stereo not shown) [mitotane], the “reducing proliferation of H295R cells, single agent” value (NCI-H295R cells) was “some effect”.
In the case of O=C(Nc1ccc([N+](=O)[O-])cc1Cl)c1cc(Cl)ccc1O [niclosamide, 5-chloro-N-(2-chloro-4-nitrophenyl)-2-hydrobenzamide], the water solubility [1] is given as “low”, the “expression of β-catenin” value (β-catenin) is given as “reduced” and the “extracellular acidification rate (ECAR)” value [2] is given as “increased”. For the same compound, the “oxygen consumption rate (OCR)” value [2] was “increased”, the “caspase 3/7 activity” value (SW-13 [3]) was “increased” and the “caspase 3/7 activity” value (BD140A cells [4]) was “no increase”. The “caspase 3/7 activity” value (NCI-H295R [5]) was “increased”, the “effect on MCAs” value (NCI-H295R MCAs) was “growth inhibition and disintegration of the MCAs” and the “effect on MCAs” value (SW-13 MCAs) was “growth inhibition and disintegration of the MCAs”. It also gave an IC50 (SW-13 [6]) of 150 nM, an IC50 (NCI-H295R [7]) of 530 nM and an IC50 (BD140A) of 120 nM. The cellular migration (NCI-H295R and SW-13) was “Reduced”, the cell cycle progression (all three ACC cell lines) was “induced G1 cell cycle arrest” and the tumor growth inhibition (NCI-H295R xenografts; 100 mg/kg and 200 mg/kg groups, 8 weeks, vs control group) was “more than 90%”. The “tolerability / toxicity in mice” value (NCI-H295R xenografts; 100 mg/kg and 200 mg/kg oral) was “no observed toxicity or side effects”, the “inhibition in tumor growth” value (NCI-H295R xenografts; 100 mg/kg everyday by oral gavage) was 60% and the “inhibition in tumor growth” value (NCI-H295R xenografts; 200 mg/kg everyday by oral gavage) was 80%. For the same compound, the mouse body weight (NCI-H295R xenografts; treated groups vs vehicle) was “no significant weight differences”, the “cytotoxicity (killing pre-existing cancer cells)” value ([8]; at higher concentrations) was “cytotoxic” and the cellular proliferation ([8]; monolayer cell culture, three ACC cell lines) was “inhibited proliferation in a time- and dose-dependent manner”. For the same compound, the “reducing proliferation of H295R cells, single agent” value (NCI-H295R cells) was “some effect”, the AKT pathway (AKT pathway) was “inhibited” and the expression of vimentin (vimentin) was “reduced”. For the same compound, the “expression of N-cadherin” value (N-cadherin) was “reduced”, the oral bioavailability [9] was “low” and the Cmax [10] was 18.3 µM. For the same compound, the “mitochondrial membrane potential (TMRE)” value (ACC cells) was “decrease”, the “activity compared to commonly used drugs for ACC” value [11] was “better activity” and the cell migration (BD140A cells [12]) was “decreased”.
